pIC50: −log10 of the molar value.

A word on the pIC50: it is −log10 of the IC50, conventionally taken in molar units. As a reminder, the Ki is the equilibrium dissociation constant of an inhibitor or competing ligand from its target.

For one test, the system named is HCT116 MTAP null cells. Description: HCT116 proliferation assay, MTAP null cells (CellTiter-Glo, 6 days). It counts as cell-based. The following applies: HCT116-MTAP null, 144 h, read-out: Protif_ HCT116-MTAP null IC50. The essentials: (§1)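 Cells were plated in RPMI 1640 with 10% fetal bovine serum and left overnight at 37° C and 5% CO2. Compound was then added as an 8- or 9-point 1:3 dilution series from a top concentration of 1 or 10 µM, alongside a DMSO-only control. Viability was read by luminescence.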
In general terms: Cellular ATP, detected with luciferase, serves as a proxy for viable cell number.

The next test concerns HCT116 WT cells. The experiment in a line: HCT116 proliferation assay, WT cells (CellTiter-Glo, 6 days). The class given is cell-based. The following applies: Homo sapiens, HCT-116, 144 h, read-out: Prolif_HCT116-WT IC50. The essentials:
as §1

In the next test the target is PRMT5/MEP50 (Homo sapiens, UniProt O14744). Description: MTase-Glo methyl transferase assay, Method A (Histone H4 peptide, 1 µM MTA, 24 h pre-incubation). The class given is biochemical. Further details: made in house. To be noted: read-out: PRMT5 MTase Glo Ki (nM, Meth. A). On the procedure: Method A: The PRMT5 inhibitory activity of test compounds was determined using the MTase-Glo™ assay (Promega), which monitors the product (S-adenosyl homocysteine or SAH) of methyltransferase reactions. The PRMT5 MTase-Glo assay was conducted in a 384-well white ProxiPlate (PerkinElmer) in a total volume of 12 µL. The PRMT5 enzymatic reaction (in 4 µL) contained 10 nM PRMT5/MEP50 (produced at Amgen), 5 µM S-adenosyl methionine (SAM, Promega), 1 µM Histone H4 (1-21)-Lys(Biotin) (Anaspec), 1 µM 5′-methylthioadenosine (MTA, Sigma) and two-fold serially diluted compounds in a reaction buffer of 50 mM Tris (pH 8.0), 50 mM NaCl, 0.01% Tween 20, 0.01% BSA, and 1 mM DTT. Test compounds were pre-incubated with PRMT5/MEP50, SAM, and MTA for 24 hours before addition of Histone H4 peptide to initiate the PRMT5 reaction. The reaction was allowed to proceed for 2 hours at room temperature and was then terminated by addition of 2 µL of 3X MTase-Glo™ Reagent (Promega) and 150 µM EPZ015666 (Sigma). After a 30-minute incubation at room temperature, 6 µL of MTase-Glo™ Detection Solution (Promega) was added and the plate was incubated at room temperature for an additional 30 minutes. The light signal corresponding to the amount of SAH produced by the PRMT5 reaction was subsequently measured using an Envision multimode reader (PerkinElmer). IC50 and KI values were obtained by analyzing dose-response curves using Genedata Screener (Genedata).
PRMT5/MEP50, sequence (O14744 whole entry): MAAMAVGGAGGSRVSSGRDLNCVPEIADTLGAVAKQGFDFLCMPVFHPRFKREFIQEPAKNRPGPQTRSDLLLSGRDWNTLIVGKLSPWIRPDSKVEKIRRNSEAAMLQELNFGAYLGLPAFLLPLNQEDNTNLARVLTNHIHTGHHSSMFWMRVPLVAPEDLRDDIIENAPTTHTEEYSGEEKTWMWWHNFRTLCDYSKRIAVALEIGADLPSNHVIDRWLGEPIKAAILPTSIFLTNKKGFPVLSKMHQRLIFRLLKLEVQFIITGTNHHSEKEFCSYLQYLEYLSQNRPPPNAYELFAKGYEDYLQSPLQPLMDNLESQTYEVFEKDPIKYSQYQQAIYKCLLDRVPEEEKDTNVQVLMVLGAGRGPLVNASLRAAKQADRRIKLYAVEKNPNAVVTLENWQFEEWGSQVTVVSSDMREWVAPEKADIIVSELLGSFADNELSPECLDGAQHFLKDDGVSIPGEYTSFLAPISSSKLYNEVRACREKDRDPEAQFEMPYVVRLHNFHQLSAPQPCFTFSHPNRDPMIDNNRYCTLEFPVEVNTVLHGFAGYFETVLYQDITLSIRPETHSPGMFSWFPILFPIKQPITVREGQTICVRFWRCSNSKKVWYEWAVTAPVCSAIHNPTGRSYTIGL
PRMT5/MEP50, sequence (Q9BQA1 whole entry partner): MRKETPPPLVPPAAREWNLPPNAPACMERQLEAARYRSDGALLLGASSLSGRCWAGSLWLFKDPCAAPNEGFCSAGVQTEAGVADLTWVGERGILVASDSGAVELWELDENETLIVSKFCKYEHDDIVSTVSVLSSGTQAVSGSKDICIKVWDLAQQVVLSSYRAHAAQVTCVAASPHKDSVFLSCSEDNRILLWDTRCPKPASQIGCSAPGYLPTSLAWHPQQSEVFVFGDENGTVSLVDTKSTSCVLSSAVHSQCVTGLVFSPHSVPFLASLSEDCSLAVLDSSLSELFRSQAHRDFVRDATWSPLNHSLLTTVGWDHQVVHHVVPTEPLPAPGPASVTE

Consider `Cc1cc2cc(C(=O)N(Cc3ccc(C(F)(F)F)cn3)[C@@H]3CCCc4nccnc43)ccc2nc1N` (single isomer, unassigned) [Example 521], for which the pIC50 is 7.92 with HCT116 MTAP null cells and 7.11 with HCT116 WT cells. The Ki at PRMT5/MEP50 worked out at 0.01 nM.

For `Cc1cc2cc(C(=O)N(Cc3ccc(C(F)(F)F)cn3)[C@H]3CCCc4nccnc43)ccc2nc1N` (single isomer, unassigned) [Example 522, 2-amino-3-methyl-N-((5 S)-5,6,7,8-tetrahydro-5-quinoxalinyl)-N-((5-(trifluoromethyl)-2-pyridinyl)methyl)-6-quinolinecarboxamide], the pIC50 in the test with HCT116 MTAP null cells is 6.06; in the test on HCT116 WT cells, 5.25. Moreover, on PRMT5/MEP50, the Ki was found to be 49.9 nM.

For the compound `Cc1cc2cc(C(=O)N(Cc3ccc(C#N)cn3)[C@@H]3CCCn4ncnc43)ccc2nc1N` (single isomer, unassigned) [Example 523], the pIC50 was 6.48 in the test with HCT116 MTAP null cells and 5.20 with HCT116 WT cells. The Ki at PRMT5/MEP50 was 0.35 nM.

As to `Cc1cc2cc(C(=O)N(Cc3ccc(C(F)(F)F)nn3)[C@H](C)c3ncccc3Cl)ccc2nc1N` (single isomer, unassigned) [Example 525], the pIC50 in the test on HCT116 MTAP null cells is 6.22; in the test with HCT116 WT cells it was 5.12. Moreover, at PRMT5/MEP50, the Ki was 0.23 nM.

`Cc1cc2cc(C(=O)N(Cc3cccc(C(F)(F)F)n3)[C@H](C)c3ncccn3)ccc2nc1N` (single isomer, unassigned) [Example 526]: the pIC50 in the test with HCT116 MTAP null cells was 6.49; in the test with HCT116 WT cells it was under 5.00. Also, the inhibition constant Ki at PRMT5/MEP50 was 0.33 nM.

Turning to `Cc1cc2cc(C(=O)N(Cc3ccc(C(F)(F)F)cn3)[C@@H]3CCCc4cn[nH]c43)ccc2nc1N` (single isomer, unassigned) [Example 527], the figures for the pIC50 with HCT116 MTAP null cells and in the test with HCT116 WT cells were 8.00 and 6.85, respectively. The Ki at PRMT5/MEP50 was 0.05 nM.

For the compound `Cc1cc2cc(C(=O)N(Cc3ccc(C(F)(F)F)cn3)[C@H](C)c3ncc(F)cn3)ccc2nc1N` (single isomer, unassigned) [Example 528], the pIC50 was 7.24 in the test on HCT116 MTAP null cells and 6.05 in the test on HCT116 WT cells. Also, on PRMT5/MEP50, the Ki came to 0.14 nM.

Take `COC[C@@H](c1ccccn1)N(Cc1ccc(C(F)(F)F)cn1)C(=O)c1ccc2nc(N)c(C)cc2c1` (single isomer, unassigned) [Example 529]: the pIC50 in the test with HCT116 MTAP null cells was 6.59; with HCT116 WT cells, 5.37. For the same compound, the Ki at PRMT5/MEP50 amounted to 1.69 nM.

Regarding `COC[C@H](c1ccccn1)N(Cc1ccc(C(F)(F)F)cn1)C(=O)c1ccc2nc(N)c(C)cc2c1` (single isomer, unassigned) [Example 530], the pIC50 with HCT116 MTAP null cells was 6.97; with HCT116 WT cells, 5.77. Further, the Ki on PRMT5/MEP50 amounted to 0.18 nM.

For the compound `Cc1cc2cc(C(=O)N(Cc3ccc(C#N)cn3)[C@H](C)c3ncn(C)n3)ccc2nc1N` (single isomer, unassigned) [Example 531], the negative-log IC50 (pIC50) in the test with HCT116 MTAP null cells was 7.11; with HCT116 WT cells it was 5.55. Further, the Ki at PRMT5/MEP50 is 0.1 nM.

`Cc1cc2cc(C(=O)N(Cc3ccc(C(F)F)cn3)[C@H](C)c3cnn(C)n3)ccc2nc1N` (single isomer, unassigned) [Example 532]: the pIC50 in the test on HCT116 MTAP null cells is 7.35; in the test on HCT116 WT cells it was 6.05. For the same compound, the Ki at PRMT5/MEP50 was found to be 0.02 nM.

Take `Cc1cc2cc(C(=O)N(Cc3ccc(C(F)(F)F)nn3)[C@H](C)c3cscn3)ccc2nc1N` (single isomer, unassigned) [Example 533]: the pIC50 in the test with HCT116 MTAP null cells was 7.72; in the test with HCT116 WT cells it was 6.12. In addition, the Ki on PRMT5/MEP50 worked out at 0.02 nM.

As to `Cc1nc([C@@H](C)N(Cc2ccc(C(F)F)cn2)C(=O)c2ccc3nc(N)c(C)cc3c2)no1` (single isomer, unassigned) [Example 534], the pIC50 is 6.81 with HCT116 MTAP null cells and 5.40 in the test with HCT116 WT cells. Moreover, the Ki on PRMT5/MEP50 was 0.33 nM.

Consider `C[C@H](c1ncn(C)n1)N(Cc1ccc(C(F)F)cn1)C(=O)c1cnc2nc(N)c(Br)cc2c1` (single isomer, unassigned) [Example 535], for which the pIC50 was 6.26 in the test with HCT116 MTAP null cells and under 5.00 with HCT116 WT cells. Moreover, the Ki at PRMT5/MEP50 was 0.34 nM.

In the case of `Cc1cc2cc(C(=O)N(Cc3ccc(Br)nn3)[C@H](C)c3ncn(C)n3)ccc2nc1N` (single isomer, unassigned) [Example 536], the pIC50 in the test on HCT116 MTAP null cells was 7.36; in the test on HCT116 WT cells it was 5.84. Also, the Ki at PRMT5/MEP50 came out at 0.02 nM.

As for `C[C@H](c1ncccn1)N(Cc1ccc(C(F)(F)F)cn1)C(=O)c1ccc2nc(N)c(I)cc2c1` (single isomer, unassigned) [Example 544], the pIC50 in the test on HCT116 MTAP null cells was 7.68; in the test on HCT116 WT cells, 6.14. Moreover, the Ki at PRMT5/MEP50 was found to be 0.08 nM.

With `Cc1cc2cc(C(=O)N(Cc3cccnc3)Cc3ccc(C(F)(F)F)cn3)ccc2nc1N` [Example 301, 2-amino-3-methyl-N-(3-pyridinylmethyl)-N-((5-(trifluoromethyl)-2-pyridinyl)methyl)-6-quinolinecarboxamide], the pIC50 is 6.06 with HCT116 MTAP null cells and under 5.00 with HCT116 WT cells. Moreover, the Ki at PRMT5/MEP50 was determined as 1.22 nM.

On to `Cc1cc2cc(C(=O)N(Cc3ccccn3)Cc3ccc(C(F)(F)F)cn3)ccc2nc1N` [Example 302, 2-amino-3-methyl-N-(2-pyridinylmethyl)-N-((5-(trifluoromethyl)-2-pyridinyl)methyl)-6-quinolinecarboxamide], for which the pIC50 is 6.44 with HCT116 MTAP null cells and under 5.00 with HCT116 WT cells. At PRMT5/MEP50, the Ki is 0.3 nM.

For the compound `Cc1cc2cc(C(=O)N(Cc3ccc(C(F)(F)F)cn3)Cc3ncccc3Cl)ccc2nc1N` [Example 303, 2-amino-N-((3-chloro-2-pyridinyl)methyl)-3-methyl-N-((5-(trifluoromethyl)-2-pyridinyl)methyl)-6-quinolinecarboxamide], the pIC50 is 7.49 in the test on HCT116 MTAP null cells and 6.22 in the test with HCT116 WT cells. In addition, the Ki on PRMT5/MEP50 amounted to 0.01 nM.

For `Cc1cc2cc(C(=O)N(Cc3ccc(C(F)(F)F)cn3)Cc3ncc(Cl)cc3F)ccc2nc1N` [Example 304, 2-amino-N-((5-chloro-3-fluoro-2-pyridinyl)methyl)-3-methyl-N-((5-(trifluoromethyl)-2-pyridinyl)methyl)-6-quinolinecarboxamide], the pIC50 with HCT116 MTAP null cells was 6.74; in the test with HCT116 WT cells, 5.39. The Ki at PRMT5/MEP50 is 0.11 nM.

Consider `Cc1cc2cc(C(=O)N(Cc3ccc(C(F)(F)F)cn3)Cc3cnc(N)s3)ccc2nc1N` [Example 305, 2-amino-N-((2-amino-1,3-thiazol-5-yl)methyl)-3-methyl-N-((5-(trifluoromethyl)-2-pyridinyl)methyl)-6-quinolinecarboxamide], for which the pIC50 is 6.57 in the test with HCT116 MTAP null cells and 5.06 in the test on HCT116 WT cells. For the same compound, the Ki on PRMT5/MEP50 was 15.1 nM.

For `Cc1cc2cc(C(=O)N(Cc3ccc(C(F)(F)F)cn3)Cc3ncn(C)n3)ccc2nc1N` [Example 306, 2-amino-3-methyl-N-((1-methyl-1H-1,2,4-triazol-3-yl)methyl)-N-((5-(trifluoromethyl)-2-pyridinyl)methyl)-6-quinolinecarboxamide], the figures for the pIC50 in the test on HCT116 MTAP null cells and with HCT116 WT cells were 6.40 and under 5.00, respectively. On PRMT5/MEP50, the Ki was found to be 0.76 nM.

In the case of `Cc1cc2cc(C(=O)N(Cc3ccc(C#N)cn3)CC3CC3)c(F)cc2nc1N` [Example 307, 2-amino-N-((5-cyano-2-pyridinyl)methyl)-N-(cyclopropylmethyl)-7-fluoro-3-methyl-6-quinolinecarboxamide], the figures for the negative-log IC50 (pIC50) with HCT116 MTAP null cells and in the test with HCT116 WT cells were 6.46 and 5.12, respectively. The Ki at PRMT5/MEP50 was determined as 1.88 nM.
